# Assay results as given in patent US20230255906A1, “Targeting Serpin B9 in Cancer” (The Brigham and Women`s Hospital, Inc., priority 2020, published 2023).
# Tested on: B16 melanoma cells
# Assay: Caspase-3 activity assay (EnzChek Caspase-3 Assay Kit), caspase-3 induction in tumor cells; note: test concentration or dose not given here
# Type: cell-based, mouse
# Details: not given
# In short: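 B16 melanoma cells exposed to compounds for 24 h, lysed on ice 30 min, and lysate incubated with Z-DEVD-R110 substrate about 30 min at room temperature. Fluorescence read at ~496/520 nm against untreated-cell and no-enzyme controls; caspase-3 induction serves as surrogate for GrB activity from Sb9 inhibition.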
row,Compound,Ratio of caspase-3 activity to Formula (III)
1,"Cc1cc(CNC(=O)c2ccc3oc(-c4cccc(F)c4)nc3c2)nn1C [N-[(1,5-dimethyl-1H-pyrazol-3-yl)methyl]-2-(3-fluorophenyl)-1,3-benzoxazole-5-carboxamide]",0.123
2,"CCn1ccnc1CN(C)C(=O)c1ccc2nc(-c3cccc(OC)c3)oc2c1 [N-[(1-ethyl-1H-imidazol-2-yl)methyl]-2-(3-methoxyphenyl)-N-methyl-1,3-benzoxazole-6-carboxamide]",1.071
3,"CCn1ccnc1CN(C)C(=O)c1ccc2oc(-c3ccc(C(F)(F)F)cc3)nc2c1 [N-[(1-ethyl-1H-imidazol-2-yl)methyl]-N-methyl-2-[4-(trifluoromethyl)phenyl]-1,3-benzoxazole-5-carboxamide]",0.1566
4,"CCn1cc(CNC(=O)c2ccc3oc(-c4cccc(F)c4)nc3c2)cn1 [N-[(1-ethyl-1H-pyrazol-4-yl)methyl]-2-(3-fluorophenyl)-1,3-benzoxazole-5-carboxamide]",1.163
5,"COc1cccc(-c2nc3ccc(C(=O)N(C)Cc4c(C)n[nH]c4C)cc3o2)c1 [N-[(3,5-dimethyl-1H-pyrazol-4-yl)methyl]-2-(3-methoxyphenyl)-N-methyl-1,3-benzoxazole-6-carboxamide]",0.1324
6,"CCc1ccc(CN(C)C(=O)c2ccc3oc(-c4cccc(F)c4)nc3c2)nc1 [N-[(5-ethyl-2-pyridinyl)methyl]-2-(3-fluorophenyl)-N-methyl-1,3-benzoxazole-5-carboxamide]",0.1324
7,"O=C(NC1CCC1)c1ccc2oc(-c3ccc(C(F)(F)F)cc3)nc2c1 [N-cyclobutyl-2-[4-(trifluoromethyl)phenyl]-1,3-benzoxazole-5-carboxamide]",1.28
8,"CCN(CCn1cccn1)C(=O)c1ccc2nc(-c3cccc(OC)c3)oc2c1 [N-ethyl-2-(3-methoxyphenyl)-N-[2-(1H-pyrazol-1-yl)ethyl]-1,3-benzoxazole-6-carboxamide]",0.1363
9,"CCN(CCO)C(=O)c1ccc2oc(-c3ccc(C(F)(F)F)cc3)nc2c1 [N-ethyl-N-(2-hydroxyethyl)-2-[4-(trifluoromethyl)phenyl]-1,3-benzoxazole-5-carboxamide]",0.1437
10,"CC(C)NC(=O)c1ccc2oc(-c3ccc(C(F)(F)F)cc3)nc2c1 [N-isopropyl-2-[4-(trifluoromethyl)phenyl]-1,3-benzoxazole-5-carboxamide]",0.2847
11,"CN(Cc1ccn[nH]1)C(=O)c1ccc2oc(-c3ccc(C(F)(F)F)cc3)nc2c1 [N-methyl-N-(1H-pyrazol-5-ylmethyl)-2-[4-(trifluoromethyl)phenyl]-1,3-benzoxazole-5-carboxamide]",0.1414
12,"CN(Cc1cccnc1)C(=O)c1ccc2oc(-c3ccc(C(F)(F)F)cc3)nc2c1 [N-methyl-N-(3-pyridinylmethyl)-2-[4-(trifluoromethyl)phenyl]-1,3-benzoxazole-5-carboxamide]",0.1669

# Same assay, conditions: relative to compound of Formula (III)
row,Compound,"Caspase-3 induction, Normalized to Formula (III) (%)"
1,COc1cc(C(=O)NCCN(C)C)ccc1OCCC(C)C [N-[2-(dimethylamino)ethyl]-3-methoxy-4-(3-methylbutoxy)benzamide],6.8323
2,CCOc1ccc(C(=O)NCCN(C)C)cc1O [N-[2-(dimethylamino)ethyl]-4-ethoxy-3-hydroxybenzamide],−38.5237
3,"COc1cc(C(=O)NCCN(C)C)cc(OC)c1O [N-[2-(dimethylamino)ethyl]-4-hydroxy-3,5-dimethoxybenzamide]",−5.767
4,"CN(C)CCNC(=O)c1cc2c(cc1O)OCO2 [N-[2-(dimethylamino)ethyl]-6-hydroxy-2H-1,3-benzodioxole-5-carboxamide]",2.3274
5,"O=C(NCc1ccccc1)c1ccc2nc(C(F)(F)C(F)(F)F)oc2c1 [N-benzyl-2-(1,1,2,2,2-pentafluoroethyl)-1,3-benzoxazole-6-carboxamide]",−48.3904
6,"O=C(NCc1ccccc1)c1ccc2nc(-c3cc(Cl)cc(Cl)c3)oc2c1 [N-benzyl-2-(3,5-dichlorophenyl)-1,3-benzoxazole-6-carboxamide]",−36.0528
7,"CN(C)c1nc2c(C(=O)NCc3ccccc3)cccc2o1 [N-benzyl-2-(dimethylamino)-1,3-benzoxazole-4-carboxamide]",61.2163
8,"CN(C)c1nc2cccc(C(=O)NCc3ccccc3)c2o1 [N-benzyl-2-(dimethylamino)-1,3-benzoxazole-7-carboxamide]",−26.8974
9,"O=C(NCc1ccccc1)c1ccc2nc(C3CCCO3)oc2c1 (stereo not shown) [N-benzyl-2-(oxolan-2-yl)-1,3-benzoxazole-6-carboxamide]",−34.6335
10,"O=C(NCc1ccccc1)c1ccc2nc(C3CCCCC3)oc2c1 [N-benzyl-2-cyclohexyl-1,3-benzoxazole-6-carboxamide]",−61.2418
11,"O=C(NCc1ccccc1)c1ccc2nc(C3CC3)oc2c1 [N-benzyl-2-cyclopropyl-1,3-benzoxazole-6-carboxamide]",−32.882
12,"Cc1nc2c(C(=O)NCc3ccccc3)cccc2o1 [N-benzyl-2-methyl-1,3-benzoxazole-4-carboxamide]",−46.2057
13,"O=C(NCc1ccccc1)c1ccc2nc(S)oc2c1 [N-benzyl-2-sulfanyl-1,3-benzoxazole-6-carboxamide]",−17.7286
14,"Cc1cc(O)c(O)cc1C(=O)NCc1ccccc1 [N-benzyl-4,5-dihydroxy-2-methylbenzamide]",−43.6184
15,CCOc1ccc(C(=O)NCc2ccccc2)cc1O [N-benzyl-4-ethoxy-3-hydroxybenzamide],19.0685
16,"COc1cc(C(=O)NCc2ccccc2)cc(OC)c1O [N-benzyl-4-hydroxy-3,5-dimethoxybenzamide]",−17.7065
17,"O=C(NCc1ccccc1)c1cc2c(cc1O)OCO2 [N-benzyl-6-hydroxy-2H-1,3-benzodioxole-5-carboxamide]",−9.366
18,"CN(C)c1nc2c(C(=O)NC3CCCC3)cccc2o1 [N-cyclopentyl-2-(dimethylamino)-1,3-benzoxazole-4-carboxamide]",−20.9929
19,"CN(C)c1nc2cccc(C(=O)NC3CCCC3)c2o1 [N-cyclopentyl-2-(dimethylamino)-1,3-benzoxazole-7-carboxamide]",−47.699

row,Compound,"Caspase-3 induction, Normalized to Formula (III) (%)"
1,"O=C(NC1CCCC1)c1ccc2nc(C3CC3)oc2c1 [N-cyclopentyl-2-cyclopropyl-1,3-benzoxazole-6-carboxamide]",−21.5068
2,"Cc1nc2c(C(=O)NC3CCCC3)cccc2o1 [N-cyclopentyl-2-methyl-1,3-benzoxazole-4-carboxamide]",−30.2879
3,"O=C(NC1CCCC1)c1ccc2nc(S)oc2c1 [N-cyclopentyl-2-sulfanyl-1,3-benzoxazole-6-carboxamide]",−81.3264
4,"Cc1cc(O)c(O)cc1C(=O)NC1CCCC1 [N-cyclopentyl-4,5-dihydroxy-2-methylbenzamide]",−66.5183
5,CCOc1ccc(C(=O)NC2CCCC2)cc1O [N-cyclopentyl-4-ethoxy-3-hydroxybenzamide],4.1370
6,"COc1cc(C(=O)NC2CCCC2)cc(OC)c1O [N-cyclopentyl-4-hydroxy-3,5-dimethoxybenzamide]",−24.5783
7,"O=C(NC1CCCC1)c1cc2c(cc1O)OCO2 [N-cyclopentyl-6-hydroxy-2H-1,3-benzodioxole-5-carboxamide]",−61.6444
8,"CCN(C)C(=O)c1cc(O)c(O)cc1C [N-ethyl-4,5-dihydroxy-N,2-dimethylbenzamide]",−33.2116
9,"CCN(C)C(=O)c1cc(OC)c(O)c(OC)c1 [N-ethyl-4-hydroxy-3,5-dimethoxy-N-methylbenzamide]",−34.6356
10,CCN(C)C(=O)c1ccc(O)c(OC)c1 [N-ethyl-4-hydroxy-3-methoxy-N-methylbenzamide],−33.3917
11,"CCN(C)C(=O)c1cc2c(cc1O)OCO2 [N-ethyl-6-hydroxy-N-methyl-2H-1,3-benzodioxole-5-carboxamide]",−3.424
12,"CCN(C)C(=O)c1ccc2oc(C)nc2c1 [N-ethyl-N,2-dimethyl-1,3-benzoxazole-5-carboxamide]",−65.6678
13,"CCN(C)C(=O)c1ccc2ocnc2c1 [N-ethyl-N-methyl-1,3-benzoxazole-5-carboxamide]",−74.9828
14,"CCN(C)C(=O)c1ccc2nc(C(F)(F)C(F)(F)F)oc2c1 [N-ethyl-N-methyl-2-(1,1,2,2,2-pentafluoroethyl)-1,3-benzoxazole-6-carboxamide]",−28.449
15,"CCN(C)C(=O)c1ccc2nc(C3CCCO3)oc2c1 (stereo not shown) [N-ethyl-N-methyl-2-(oxolan-2-yl)-1,3-benzoxazole-6-carboxamide]",8.3538
16,"CCN(C)C(=O)c1ccc2oc(=O)[nH]c2c1 [N-ethyl-N-methyl-2-oxo-2,3-dihydro-1,3-benzoxazole-5-carboxamide]",−21.7056
17,"CCN(C)C(=O)c1ccc2nc(-c3ccccc3)oc2c1 [N-ethyl-N-methyl-2-phenyl-1,3-benzoxazole-6-carboxamide]",−76.883
18,"CCN(C)C(=O)c1ccc2nc(S)oc2c1 [N-ethyl-N-methyl-2-sulfanyl-1,3-benzoxazole-6-carboxamide]",−6.201
